{
  "source": "paper PMC2905628",
  "about": "(Molecular cancer therapeutics, 2010)",
  "biological_target": "T1, protein kinase D2 (PKD2) (Homo sapiens, UniProt Q9BZL6)",
  "T1 sequence (Q9BZL6 1-878)": "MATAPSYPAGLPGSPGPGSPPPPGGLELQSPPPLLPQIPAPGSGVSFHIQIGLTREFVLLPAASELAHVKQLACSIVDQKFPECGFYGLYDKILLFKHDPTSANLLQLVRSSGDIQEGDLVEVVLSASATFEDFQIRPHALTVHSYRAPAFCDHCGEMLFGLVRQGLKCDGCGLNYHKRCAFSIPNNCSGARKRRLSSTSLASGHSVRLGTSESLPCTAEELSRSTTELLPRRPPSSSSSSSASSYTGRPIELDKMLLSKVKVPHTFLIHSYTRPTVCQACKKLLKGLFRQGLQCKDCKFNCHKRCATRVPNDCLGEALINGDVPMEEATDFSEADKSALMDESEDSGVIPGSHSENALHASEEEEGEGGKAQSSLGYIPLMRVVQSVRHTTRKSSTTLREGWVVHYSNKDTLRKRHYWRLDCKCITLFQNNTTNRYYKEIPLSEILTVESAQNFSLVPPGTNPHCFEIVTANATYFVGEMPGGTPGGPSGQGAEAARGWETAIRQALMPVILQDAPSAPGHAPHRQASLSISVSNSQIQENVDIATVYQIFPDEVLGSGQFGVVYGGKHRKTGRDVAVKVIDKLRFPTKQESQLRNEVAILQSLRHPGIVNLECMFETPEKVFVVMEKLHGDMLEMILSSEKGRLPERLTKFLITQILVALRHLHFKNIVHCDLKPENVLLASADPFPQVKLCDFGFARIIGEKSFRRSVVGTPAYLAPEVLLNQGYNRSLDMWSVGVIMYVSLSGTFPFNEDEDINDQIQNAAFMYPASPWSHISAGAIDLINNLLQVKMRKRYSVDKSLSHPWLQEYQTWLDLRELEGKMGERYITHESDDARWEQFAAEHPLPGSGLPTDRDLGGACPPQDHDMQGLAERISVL",
  "assay": "IMAP fluorescence polarization kinase assay, peptide substrate phosphorylation",
  "assay_type": "biochemical",
  "data": [
    {"smiles": "CC[C@@H](N)CNc1ccnc(-c2cc(-c3cnn(C)c3)ccc2O)n1", "note": "[CRT0066101]", "values": [
      {"measurement": "IC50", "result": 2.5, "unit": "nM"}
    ]}
  ]
}
